Consider five compounds from US20100143475A1, “TRANSDERMAL THERAPEUTIC SYSTEM WITH TWO-PHASE RELEASE PROFILE” (priority 2006, published 2010).

SMILES strings stand for the structures. Like-named read-outs stand apart in the source and are kept apart here.

The conditions of data set [1]: double blind, oral, PDR 58, 2004, cited from earlier work.
For data set [2] the following is noted: 20 cm^2 TTS, plasma.
Excerpt: The application site was the upper arm and changed from one arm to the other between two successive periods.
Data set [3] is described as follows: Double blind comparison of oral lisuride and placebo in 20 patients with Parkinson's disease. Conditions: up to maximum tolerance dose of 5 mg daily, immediate-release tablet, eight of 20 patients. An excerpt: The dosage of other active substances was kept unchanged during the trial.
The conditions of data set [4]: difference to placebo.
For data set [5] the following is noted: cited from earlier work.
The nature of data set [6]: Oral ropinirole trial, comparison of central side effects (Table 5). Particulars: difference to placebo, up to 24 mg (8 mg TID), 6 months. Type of data set: in vivo, human.
The conditions of data set [7]: oral, cited from earlier work.
Where [8] appears, read: difference to placebo (footnote: less than placebo), transdermal, 2 (20 cm^2) QOD, 14 weeks.
Setting [9] is: difference to placebo, transdermal, 2 (20 cm^2) QOD, 14 weeks.
[10] abbreviates: transdermal, 2 (20 cm^2) QOD, 14 weeks, 335 Parkinsonism patients.
The mark [11] stands for this setting: oral, 4.5 mg or max. tol. dose, 7 weeks dose esc. +4 weeks.
[12] abbreviates: oral, 4.5 mg or max. tol. dose daily, 7 weeks dose esc. +4 weeks.
Setting [13] is: up to 24 mg (8 mg TID) daily, 6 months.

As for `CC(C)C[C@H]1C(=O)N2CCC[C@H]2[C@]2(O)O[C@](NC(=O)[C@@H]3C=C4c5cccc6[nH]c(Br)c(c56)C[C@H]4N(C)C3)(C(C)C)C(=O)N12` [Bromocriptine], in data set [1] (dose range 5.0-30.0 mg, n = 231), the “GI side effects: Nausea/vomiting (%)” value was 43%.

As for `C=CCN1C[C@H](C(=O)N(CCCN(C)C)C(=O)NCC)C[C@@H]2c3cccc4[nH]cc(c34)C[C@H]21` [Cabergoline], the “GI side effects: Nausea/vomiting (%)” value in data set [1] (dose range 0.25-1.0 mg, n = 221) is given as 29.0%.

`CCN(CC)C(=O)N[C@H]1C=C2c3cccc4[nH]cc(c34)CC2N(C)C1` (some centres unmarked) [Lisuride, lisuride]: the “Other psych.*” value (amnesia, fear, abnormal dreams, nervousness, delusions, paranoid reactions, sleeplessness, transdermal, 2 (20 cm^2) QOD, 14 weeks) stood at 8. Also, the “Skin reactions resulting in discontinuation Δ” value (difference to placebo) is on record as 11.3. Besides, under setting [8], the “Dizziness Δ” value was 0^♡ and the “Other psych.* Δ” value is given as 0^♡. Besides, under setting [9], the “Confusion Δ” value came out at 1.2, the “Drownsiness Δ” value is reported as 1.8, the “Dyskinesias Δ” value is 4.1 and the “Fatigue Δ” value stood at 1. Further, under setting [9], the “Hallucinations Δ” value was 3.6, the “Hypotension Δ” value stood at 1.2, the “Nausea Δ” value came out at 0.6 and the “Syncope Δ” value is given as 0. The “Vomiting Δ” value under setting [9] was determined as 0.6. The “Skin reactions resulting in discontinuation” value (lisuride group, transdermal, 14 weeks) came out at 12.5%. For the same compound, under setting [10], the Confusion came to 1.2, the Dizziness was 0.6, the Drownsiness was found to be 3.6 and the Dyskinesias came out at 7.1. Also, under setting [10], the Fatigue was 1, the Hallucinations amounted to 5.4, the Hypotension came out at 2.4 and the Syncope is recorded as 0. Under setting [10], the Vomiting is given as 1.2. Besides, in data set [2] (First application), the “Transition level” value worked out at 32 pg/mL. Further, in data set [2] (Fourth application), the Peak level stood at 140 pg/mL and the “Transition level” value came out at 32 pg/mL. In addition, in data set [2] (Second application), the Peak level came to 125 pg/mL and the “Transition level” value was 23 pg/mL. In addition, in data set [2] (Third application), the Peak level was 130 pg/mL and the “Transition level” value stood at 31 pg/mL. For the same compound, in data set [3], the “Gastrointestinal symptoms, in particular nausea (patients)” value was 40%.

Turning to `CCCN[C@H]1CCc2nc(N)sc2C1` [Pramipexol], the “GI side effects: Nausea/vomiting (%)” value in data set [1] (dose range 0.375-4.5 mg, n = 388) was 12.4%. In data set [4] (8 month trial), the “Hallucinations Δ” value worked out at 13. In data set [4] (setting [11]), the “Confusion Δ” value is listed as 3, the “Dizziness Δ” value worked out at 0.2, the “Drownsiness Δ” value came out at 2 and the “Dyskinesias Δ” value came to 10.2. Moreover, in data set [4] (setting [11]), the “Fatigue Δ” value turned out to be 24.9, the “Hypotension Δ” value worked out at 6.5, the “Nausea Δ” value came out at 2 and the “Other psych.* Δ” value was found to be 12.4. Besides, the “patients who reported hallucinations” value in data set [5] (8 month trial) is 17%. For the same compound, the “Other psych.*” value in data set [5] (amnesia, fear, abnormal dreams, nervousness, delusions, paranoid reactions, sleeplessness, oral, 4.5 mg or max. tol. dose, 7 weeks dose esc. +4 weeks) is given as 28.3. In data set [5] (setting [12]), the Confusion was 10, the Dizziness is 2.9, the Drownsiness is listed as 9 and the Dyskinesias was 14.7. In data set [5] (setting [12]), the Fatigue is 29.4, the Hypotension was 8.8 and the Nausea was 8.8.

Take `CCCN(CCC)CCc1cccc2c1CC(=O)N2` [Ropinirol]: the “GI side effects: Nausea/vomiting (%)” value in data set [1] (dose range 0.5-5.0 mg, n = 157) is on record as 45.8%. In addition, in data set [6], the “Confusion Δ” value is on record as 7, the “Dizziness Δ” value is reported as 10, the “Drownsiness Δ” value was found to be 12 and the “Dyskinesias Δ” value is recorded as 21. In addition, in data set [6], the “Hallucinations Δ” value stood at 6, the “Hypotension Δ” value came out at 1, the “Nausea Δ” value stood at 12 and the “Other psych.* Δ” value is listed as 10. In addition, in data set [6], the “Syncope Δ” value is 1 and the “Vomiting Δ” value is listed as 3. The “Other psych.*” value in data set [7] (amnesia, fear, abnormal dreams, nervousness, delusions, paranoid reactions, sleeplessness, up to 24 mg (8 mg TID), 6 months) was 19. In addition, in data set [7] (setting [13]), the Confusion is reported as 9, the Dizziness was 26, the Drownsiness was 20 and the Dyskinesias was 34. In addition, in data set [7] (setting [13]), the Hallucinations is on record as 10, the Hypotension is recorded as 2, the Nausea is given as 30 and the Syncope is given as 3. Also, the Vomiting in data set [7] (setting [13]) is listed as 7. The Fatigue in data set [7] (data from restless legs study) is recorded as 8^♦.
